Results: publication PMC11089505, “Structural Elucidation and Antiviral Activity of Covalent Cathepsin L Inhibitors” (Journal of Medicinal Chemistry, 2024)
“And” between values parts separate entries of the source, which are not always exact repeats. Equal values may be shown once. Read-outs that look alike come from different tables or passages of the source. Peptide text beside a SMILES is read from it. * marks the point of attachment. Cbz = O=C(OCc1ccccc1)*

Key:
CatL [1] = target: T1, CatL (Homo sapiens, UniProt P07711, T223A); assay: NanoDSF, thermal stability of CatL; type: binding
T1 construct: made in house; host or cells: Komagataella pastoris strain GS115

CatL [2] = target: T1, CatL; assay: CatL inhibition assay (Ki), substrate Z-RR-AMC; type: biochemical
Description: Experiments were performed in a solution of 50 mM sodium acetate, pH 4.0, 50 mM NaCl, 0.1% PEG 6000, and 5 mM DTT. Distinct assays with epoxide inhibitors at pH 6.0 were performed in 50 mM sodium phosphate buffer, 50 mM NaCl, 5 mM DTT, 0.1% PEG 6000, adjusted to pH 6.0.
M1000 pro plate reader (Tecan), the fluorescent peptide substrate Z-RR-AMC, and excitation and emission wavelengths of 370 and 460 nm, respectively.
At first, the inhibitor concentration span was optimized for each inhibitor and the assay buffer. For this initial screening, CatL (5 nM) was mixed with different concentrations of inhibitors (1 nM–50 μM) to determine the range of their inhibition. […] Reaction data were fitted to the […] in GraphPad Prism 9 software: Y = bottom + (top – bottom)/(1 + 10^∧((log IC50 – X) × HillSlope)); X is the log of dose or concentration, Y is the response (fluorescence signal), decreasing as X increases, top and bottom are the plateaus in the same units as Y, log IC50 same log units as X, HillSlope is the slope factor or called the Hill slope.

SARS-CoV-2 Mpro = SARS-CoV-2 Mpro (Severe acute respiratory syndrome coronavirus 2, UniProt P0DTD1); type: binding; conditions: for ΔTm (for Mpro), 2:1 compound to protein mixing ratio: 8 µM Mpro, pH 7.5, 2% DMSO; for 2:1, Tm average (Mpro): 2:1 compound to protein
[3] = Cell viability assay (CellTiter-Blue); conditions: African green monkey
[4] = 5 µM CatL, pH 5.0, 2% DMSO, 20:1

T1 sequence (P07711 114-333 T223A): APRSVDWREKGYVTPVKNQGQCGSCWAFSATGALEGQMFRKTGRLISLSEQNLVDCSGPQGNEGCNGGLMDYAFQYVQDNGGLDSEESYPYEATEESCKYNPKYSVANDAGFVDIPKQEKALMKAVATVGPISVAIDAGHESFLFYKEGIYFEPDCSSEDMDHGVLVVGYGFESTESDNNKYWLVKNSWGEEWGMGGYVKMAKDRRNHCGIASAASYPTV

## CC(C)(C)OC(=O)Nc1cccn([C@@H](CC2CC2)C(=O)N[C@@H](C[C@@H]2CCNC2=O)C(=O)C(=O)NCc2ccccc2)c1=O [13b, tert-Butyl N-[1-[(2S)-1-[[(2S)-4-(benzylamino)-3,4-dioxo-1-[(3S)-2-oxopyrrolidin-3-yl]butan-2-yl]amino]-3-cyclopropyl-1-oxopropan-2-yl]-2-oxopyridin-3-yl]carbamate]
CatL [1]
  2:1, Tm average (CatL): 68.7 °C
  20:1, Tm average (CatL): 76.7 °C
CatL [1]; pH 5
  ΔTm (for CatL), 2:1 compound to protein mixing ratio: 5,6 ± 0,1 °C and 5.6 °C
  ΔTm (for CatL), 20:1 compound to protein mixing ratio: 13,6 ± 0,1 °C and 13.6 °C
CatL [2]; 13b 31.346 nM
  Residual activity (Vi/V0): 0.9675 and 0.9627 and 0.6897 and 0.9692 and 0.9864 and 0.9669
CatL [2]; 13b 52.243 nM
  Residual activity (Vi/V0): 0.8888 and 0.9182 and 0.9209 and 0.8812 and 0.9125
CatL [2]; 13b 52.243 nM, read-out: Residual activity (Vi/V0)
  remaining activity at 0.052243 µM: 90.6%
CatL [2]; 13b 87.071 nM
  Residual activity (Vi/V0): 0.8265 and 0.8739 and 0.8771 and 0.8407 and 0.8552
CatL [2]; 13b 87.071 nM, read-out: Residual activity (Vi/V0)
  remaining activity at 0.087071 µM: 84.2%
CatL [2]; 13b 145.119 nM
  Residual activity (Vi/V0): 0.7626 and 0.6965 and 0.7661 and 0.7352 and 0.7663
CatL [2]; 13b 145.119 nM, read-out: Residual activity (Vi/V0)
  remaining activity at 0.145119 µM: 77.4%
CatL [2]; 13b 241.865 nM
  Residual activity (Vi/V0): 0.6661 and 0.7001 and 0.6736 and 0.645 and 0.6598
CatL [2]; 13b 403.108 nM
  Residual activity (Vi/V0): 0.5626 and 0.5615 and 0.5111 and 0.5683 and 0.5779
CatL [2]; 13b 403.108 nM, read-out: Residual activity (Vi/V0)
  remaining activity at 0.403108 µM: 56.2%
CatL [2]; 13b 671.846 nM
  Residual activity (Vi/V0): 0.4836 and 0.4354 and 0.4683 and 0.4708 and 0.465
CatL [2]; 13b 671.846 nM, read-out: Residual activity (Vi/V0)
  remaining activity at 0.671846 µM: 47.5%
CatL [2]; 13b 1119.744 nM
  Residual activity (Vi/V0): 0.4051 and 0.4054 and 0.4004 and 0.3916 and 0.3989
CatL [2]; 13b 1119.744 nM, read-out: Residual activity (Vi/V0)
  remaining activity at 1.11974 µM: 38.3%
CatL [2]; 13b 1866.240 nM
  Residual activity (Vi/V0): 0.3283 and 0.3165 and 0.3193 and 0.3153 and 0.3192
CatL [2]; 13b 1866.240 nM, read-out: Residual activity (Vi/V0)
  remaining activity at 1.86624 µM: 32.5%
CatL [2]; 13b 3110.400 nM
  Residual activity (Vi/V0): 0.258 and 0.2535 and 0.24 and 0.2503 and 0.2489
CatL [2]; 13b 3110.400 nM, read-out: Residual activity (Vi/V0)
  remaining activity at 3.1104 µM: 24.7%
CatL [2]; 13b 5184.000 nM
  Residual activity (Vi/V0): 0.1828 and 0.1618 and 0.1725 and 0.1795 and 0.1597
CatL [2]; 13b 8640.000 nM
  Residual activity (Vi/V0): 0.1228 and 0.1221 and 0.1079 and 0.1237 and 0.1244
CatL [2]; 13b 8640.000 nM, read-out: Residual activity (Vi/V0)
  remaining activity at 8.64 µM: 12.4%
CatL [2]; 13b 24000.000 nM
  Residual activity (Vi/V0): 0.04988 and 0.04656 and 0.04753 and 0.05569 and 0.04454
CatL [2]; 13b 24000.000 nM, read-out: Residual activity (Vi/V0)
  remaining activity at 24 µM: 4.42%
CatL [2]; CatL, Z-RR-AMC, pH 4.0, 37 °C, read-out: Ki
  Ki: 293 nM
SARS-CoV-2 Mpro
  ΔTm (for Mpro), 2:1 compound to protein mixing ratio: 15,7 ± 0,1 °C and 15.7 °C
  2:1, Tm average (Mpro): 70.3 °C

## CC(C)(C)OC(=O)NCC=O [BOCA, tert-Butyl N-2-oxoethylcarbamate]
CatL [1]; [4]
  ΔTm (for CatL), 20:1 compound to protein mixing ratio: 4,4 ± 0,4 °C and 4.4 °C
CatL [1]; 2:1 compound to protein
  2:1, Tm average (CatL): 62.8 °C
CatL [1]; 20:1 compound to protein
  20:1, Tm average (CatL): 67.5 °C
CatL [1]; Table S1, 2:1 ratio
  ΔTm [K] for CatL, 2:1 ratio: -0.3 ± 0.1 K
SARS-CoV-2 Mpro
  ΔTm (for Mpro), 2:1 compound to protein mixing ratio: -0,3 ± 0,1 °C
  2:1, Tm average (Mpro): 54.7 °C
SARS-CoV-2 Mpro; listed as N-BOCAAA
  ΔTm (for Mpro), 2:1 compound to protein mixing ratio: -0.3 °C

## CC(C)[C@H](NC(=O)OCc1ccccc1)C(=O)N[C@H](C=O)Cc1ccccc1 [CI-III, N-Cbz-Val-Phe-aldehyde] (Cbz-Val-Phe-aldehyde)
CatL [1]; 2:1 compound to protein
  2:1, Tm average (CatL): 75.2 °C
CatL [1]; 20:1 compound to protein
  20:1, Tm average (CatL): 81.2 °C
CatL [2]; read-out: Residual activity (Vi/V0), CI-III 0.282 nM
  remaining activity at 0.000282 µM: 60.4%
CatL [2]; read-out: Residual activity (Vi/V0), CI-III 0.404 nM
  remaining activity at 0.000404 µM: 45.4%
CatL [2]; read-out: Residual activity (Vi/V0), CI-III 0.576 nM
  remaining activity at 0.000576 µM: 33.4%
CatL [2]; read-out: Residual activity (Vi/V0), CI-III 0.824 nM
  remaining activity at 0.000824 µM: 23.1%
CatL [2]; read-out: Residual activity (Vi/V0), CI-III 1.176 nM
  remaining activity at 0.001176 µM: 16.3%
CatL [2]; read-out: Residual activity (Vi/V0), CI-III 1.681 nM
  remaining activity at 0.001681 µM: 10.8%
CatL [2]; read-out: Residual activity (Vi/V0), CI-III 2.401 nM
  remaining activity at 0.002401 µM: 6.67%
CatL [2]; read-out: Residual activity (Vi/V0), CI-III 3.430 nM
  remaining activity at 0.00343 µM: 4.1%
SARS-CoV-2 Mpro
  2:1, Tm average (Mpro): 54.5 °C

## CC(C)[C@H](NC(=O)OCc1ccccc1)C(=O)N[C@H](C=O)Cc1ccccc1 [CIII] (Cbz-Val-Phe-aldehyde)
[3]
  viability at 48 h, 1e-05 µM: 95.8%
  viability at 48 h, 0.0001 µM: 95.4%
  viability at 48 h, 0.001 µM: 94.2%
  viability at 48 h, 0.01 µM: 95.3%
  viability at 48 h, 0.1 µM: 96%
  viability at 48 h, 1 µM: 98.9%
  viability at 48 h, 10 µM: 100%

## CC(C)C[C@@H](C=O)NC(=O)[C@@H](NS(=O)(=O)c1ccc(F)cc1)C(C)C [CIVI]
[3]
  viability at 48 h, 1e-05 µM: 95.9%
  viability at 48 h, 0.0001 µM: 96.7%
  viability at 48 h, 0.001 µM: 93.8%
  viability at 48 h, 0.01 µM: 95.9%
  viability at 48 h, 0.1 µM: 95.1%
  viability at 48 h, 1 µM: 98.8%
  viability at 48 h, 10 µM: 98.3%

## CCCC(NC(=O)C(CC(C)C)NC(=O)OCc1ccccc1)C(=O)C(=O)NCc1ccccn1 (stereo not shown) [CIXII]
[3]
  viability at 48 h, 1e-05 µM: 98.9%
  viability at 48 h, 0.0001 µM: 98.8%
  viability at 48 h, 0.001 µM: 98.3%
  viability at 48 h, 0.01 µM: 100%
  viability at 48 h, 0.1 µM: 98.8%
  viability at 48 h, 1 µM: 103%
  viability at 48 h, 10 µM: 106%

## CC[C@@H](C)[C@H](NS(=O)(=O)c1cccc2ccccc12)C(=O)N[C@H](C=O)Cc1c[nH]c2ccccc12 [CLIIV]
[3]
  viability at 48 h, 1e-05 µM: 98.8%
  viability at 48 h, 0.0001 µM: 101%
  viability at 48 h, 0.001 µM: 98%
  viability at 48 h, 0.01 µM: 100%
  viability at 48 h, 0.1 µM: 98.7%
  viability at 48 h, 1 µM: 102%
  viability at 48 h, 10 µM: 101%

## CN(C)C(=O)COC(=O)Cc1ccc(OC(=O)c2ccc(NC(=N)N)cc2)cc1 [Camostat]
CatL [1]; [4]
  ΔTm (for CatL), 20:1 compound to protein mixing ratio: -0.2 °C
CatL [1]; 20:1 compound to protein
  20:1, Tm average (CatL): 62.9 °C
SARS-CoV-2 Mpro
  ΔTm (for Mpro), 2:1 compound to protein mixing ratio: -0.4 °C
  2:1, Tm average (Mpro): 54.6 °C

## CCOC(=O)[C@H]1O[C@@H]1C(=O)N[C@@H](CC(C)C)C(=O)NCCC(C)C [E-64d, Ethyl (2S,3S)-3-[[(2S)-4-methyl-1-(3-methylbutylamino)-1-oxopentan-2-yl]carbamoyl]oxirane-2-carboxylate]
CatL [1]; 5 µM CatL, pH 5.0, 2% DMSO, 2:1
  ΔTm (for CatL), 2:1 compound to protein mixing ratio: 4,5 ± 0,1 °C and 4.5 °C
CatL [1]; [4]
  ΔTm (for CatL), 20:1 compound to protein mixing ratio: 11,7 ± 0,4 °C and 11.7 °C
CatL [1]; 2:1 compound to protein
  2:1, Tm average (CatL): 67.6 °C
CatL [1]; 20:1 compound to protein
  20:1, Tm average (CatL): 74.8 °C
CatL [1]; Table S1, 2:1 ratio
  ΔTm [K] for CatL, 2:1 ratio: 4.5 ± 0.1 K
SARS-CoV-2 Mpro
  ΔTm (for Mpro), 2:1 compound to protein mixing ratio: -0,3 ± 0,3 °C
  2:1, Tm average (Mpro): 54.7 °C
SARS-CoV-2 Mpro; listed as E-64d/Aloxistatin
  ΔTm (for Mpro), 2:1 compound to protein mixing ratio: -0.3 °C

## CC(=O)N[C@@H](CC(C)C)C(=O)N[C@@H](CC(C)C)C(=O)N[C@H](C=O)CCCNC(=N)N [Leupeptin]
SARS-CoV-2 Mpro
  ΔTm (for Mpro), 2:1 compound to protein mixing ratio: 1,2 ± 0,1 °C and 1.2 °C
  2:1, Tm average (Mpro): 56.2 °C

## Cc1ccc(S(=O)(=O)N[C@@H](Cc2ccccc2)C(=O)CCl)cc1 [TPCK, N-α-Tosyl-L-phenylalanyl chloromethyl ketone]
CatL [1]
  2:1, Tm average (CatL): 67.8 °C
  ΔTm [K] for CatL, 2:1 ratio: 4.7 ± 0.1 K
CatL [1]; pH 5
  ΔTm (for CatL), 2:1 compound to protein mixing ratio: 4,7 ± 0,1 °C and 4.7 °C
  ΔTm (for CatL), 20:1 compound to protein mixing ratio: 7,0 ± 0,1 °C and 7 °C
